In ChEMBL document CHEMBL5214923, “Contemporary mTOR inhibitor scaffolds to diseases breakdown: A patent review (2015-2021)” (Eur J Med Chem, 2022):
One block for each compound: values may come before it.

Experiments:
mTORC2 = mTORC2 (Homo sapiens, UniProt P42345+Q6R327+Q9BPZ7+Q9BVC4); assay: Inhibition of mTORC2 in human PC-3 cells assessed as measuring phosphorylated Akt level incubated for 24 hrs by AlphaLISA assay; format: cell-based
mTORC1 [1] = target: T1, mTORC1 (Homo sapiens, UniProt P42345+Q8N122+Q9BVC4); assay: Inhibition of mTORC1 in human PC-3 cells assessed as measuring phosphorylated S6K level incubated for 24 hrs by AlphaLISA assay; format: cell-based
A549 = assay: Antitumor activity against human A549 cells assessed as cell growth inhibition incubated for 72 hrs by Cell Titer-Glo assay; format: functional, cell-based; conditions: A549, 72 h
[2] = Solubility of the compound in water; format: physicochemical
[3] = target: T2, Serine/threonine-protein kinase mTOR (Homo sapiens, UniProt P42345); assay: Inhibition of human mTOR assessed as measuring phosphorylated p70S6K level by TR-FRET assay
mTORC1 [4] = target: T1, mTORC1; assay: Inhibition of mTORC1 in human Jurkat cells assessed as inhibition of S6K phosphorylation incubated for 4 hrs by Western blot analysis; format: cell-based
SF-268 = assay: Antitumor activity against human SF-268 cells assessed as cell growth inhibition; format: functional, cell-based
[5] = target: Peptidyl-prolyl cis-trans isomerase FKBP1A (Homo sapiens, UniProt P62942); assay: Binding affinity to FKBP12 (unknown origin) assessed as inhibition constant
Chain of Peptidyl-prolyl cis-trans isomerase FKBP1A (P62942 whole entry): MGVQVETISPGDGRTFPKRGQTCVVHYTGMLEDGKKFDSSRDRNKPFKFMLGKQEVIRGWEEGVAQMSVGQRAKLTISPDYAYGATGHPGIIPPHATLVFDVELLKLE

DU-145 = assay: Antitumor activity against human DU-145 cells assessed as cell growth inhibition; format: functional, cell-based
[6] = Antitumor activity against human U-87 MG cells assessed as cell growth inhibition; format: functional, cell-based, U-87MG ATCC
PC-3 = assay: Antitumor activity against human PC-3 cells assessed as cell growth inhibition; format: functional, cell-based
[7] = target: T3, Phosphatidylinositol 4,5-bisphosphate 3-kinase catalytic subunit delta isoform (Homo sapiens, UniProt O00329); assay: Inhibition of human PI3Kdelta preincubated for 15 mins followed by ATP addition measured after 1 hr by TR-FRET assay
T3 sequence (O00329 whole entry): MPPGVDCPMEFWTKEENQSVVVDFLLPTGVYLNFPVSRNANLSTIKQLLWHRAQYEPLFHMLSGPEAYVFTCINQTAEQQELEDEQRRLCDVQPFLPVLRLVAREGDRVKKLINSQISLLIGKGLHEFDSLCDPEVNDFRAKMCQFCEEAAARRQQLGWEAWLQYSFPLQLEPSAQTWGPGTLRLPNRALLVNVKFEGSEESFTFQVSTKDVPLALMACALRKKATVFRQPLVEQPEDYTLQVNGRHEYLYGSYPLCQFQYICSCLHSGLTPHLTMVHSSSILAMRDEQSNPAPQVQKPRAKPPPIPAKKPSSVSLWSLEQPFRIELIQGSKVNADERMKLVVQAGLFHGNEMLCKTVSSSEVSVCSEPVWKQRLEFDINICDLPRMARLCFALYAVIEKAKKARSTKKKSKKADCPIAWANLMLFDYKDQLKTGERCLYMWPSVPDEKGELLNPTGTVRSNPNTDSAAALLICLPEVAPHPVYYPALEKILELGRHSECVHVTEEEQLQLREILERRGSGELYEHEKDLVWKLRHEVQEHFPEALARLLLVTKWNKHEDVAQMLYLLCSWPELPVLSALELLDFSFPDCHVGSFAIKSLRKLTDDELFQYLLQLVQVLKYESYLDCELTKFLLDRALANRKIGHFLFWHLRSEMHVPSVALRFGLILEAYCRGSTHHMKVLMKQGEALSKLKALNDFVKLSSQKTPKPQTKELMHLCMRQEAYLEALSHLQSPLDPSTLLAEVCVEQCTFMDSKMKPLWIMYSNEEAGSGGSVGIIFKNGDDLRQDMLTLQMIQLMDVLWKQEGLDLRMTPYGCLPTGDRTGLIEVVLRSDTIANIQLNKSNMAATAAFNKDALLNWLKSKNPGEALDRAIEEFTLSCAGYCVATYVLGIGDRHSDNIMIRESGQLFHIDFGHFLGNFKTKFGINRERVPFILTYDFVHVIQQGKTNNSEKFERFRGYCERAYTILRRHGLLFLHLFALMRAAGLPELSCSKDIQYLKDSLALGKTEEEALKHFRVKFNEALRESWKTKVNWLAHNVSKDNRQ

mTORC1 [8] = target: T1, mTORC1; assay: Inhibition of mTORC1 (unknown origin); format: protein-complex assay
[9] = target: T4, Phosphatidylinositol 4,5-bisphosphate 3-kinase catalytic subunit gamma isoform (Homo sapiens, UniProt P48736); assay: Inhibition of human PI3Kgamma preincubated for 15 mins followed by ATP addition measured after 1 hr by TR-FRET assay
T4 sequence (P48736 whole entry, canonical isoform): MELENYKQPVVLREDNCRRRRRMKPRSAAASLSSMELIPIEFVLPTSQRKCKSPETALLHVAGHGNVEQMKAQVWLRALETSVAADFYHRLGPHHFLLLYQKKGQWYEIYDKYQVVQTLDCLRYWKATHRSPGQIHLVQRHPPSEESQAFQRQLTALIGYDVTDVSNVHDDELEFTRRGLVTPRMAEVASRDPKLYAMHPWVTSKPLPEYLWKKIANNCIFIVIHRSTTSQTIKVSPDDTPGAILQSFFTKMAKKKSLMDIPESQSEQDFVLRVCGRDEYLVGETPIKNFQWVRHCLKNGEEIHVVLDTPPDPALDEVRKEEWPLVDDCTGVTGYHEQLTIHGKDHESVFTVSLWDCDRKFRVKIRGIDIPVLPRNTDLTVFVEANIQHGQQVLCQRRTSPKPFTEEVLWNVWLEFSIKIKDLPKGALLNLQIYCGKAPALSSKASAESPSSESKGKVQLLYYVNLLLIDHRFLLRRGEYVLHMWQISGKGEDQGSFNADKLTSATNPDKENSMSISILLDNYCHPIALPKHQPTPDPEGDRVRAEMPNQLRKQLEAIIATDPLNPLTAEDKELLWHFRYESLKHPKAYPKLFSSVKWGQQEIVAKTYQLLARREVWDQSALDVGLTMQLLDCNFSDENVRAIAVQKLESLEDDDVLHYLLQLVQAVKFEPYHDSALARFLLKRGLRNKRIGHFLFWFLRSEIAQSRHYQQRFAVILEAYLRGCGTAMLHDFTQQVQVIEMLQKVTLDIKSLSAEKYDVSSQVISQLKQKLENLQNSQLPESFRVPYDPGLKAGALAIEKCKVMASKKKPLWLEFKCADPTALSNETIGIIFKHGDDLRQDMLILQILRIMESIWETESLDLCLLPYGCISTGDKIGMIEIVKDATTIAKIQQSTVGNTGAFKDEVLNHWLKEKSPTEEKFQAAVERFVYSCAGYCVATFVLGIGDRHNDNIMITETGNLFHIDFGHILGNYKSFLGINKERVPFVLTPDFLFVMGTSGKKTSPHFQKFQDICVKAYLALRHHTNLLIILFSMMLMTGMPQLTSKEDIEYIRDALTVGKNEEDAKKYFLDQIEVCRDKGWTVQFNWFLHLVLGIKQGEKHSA

[10] = target: T4, Phosphatidylinositol 4,5-bisphosphate 3-kinase catalytic subunit gamma isoform; assay: Inhibition of PI3Kgamma (unknown origin) by TR-FRET assay
[11] = target: Phosphatidylinositol 4,5-bisphosphate 3-kinase catalytic subunit beta isoform (Homo sapiens, UniProt P42338); assay: Inhibition of PI3Kbeta (unknown origin) by TR-FRET assay
Chain of Phosphatidylinositol 4,5-bisphosphate 3-kinase catalytic subunit beta isoform (P42338 whole entry, canonical isoform): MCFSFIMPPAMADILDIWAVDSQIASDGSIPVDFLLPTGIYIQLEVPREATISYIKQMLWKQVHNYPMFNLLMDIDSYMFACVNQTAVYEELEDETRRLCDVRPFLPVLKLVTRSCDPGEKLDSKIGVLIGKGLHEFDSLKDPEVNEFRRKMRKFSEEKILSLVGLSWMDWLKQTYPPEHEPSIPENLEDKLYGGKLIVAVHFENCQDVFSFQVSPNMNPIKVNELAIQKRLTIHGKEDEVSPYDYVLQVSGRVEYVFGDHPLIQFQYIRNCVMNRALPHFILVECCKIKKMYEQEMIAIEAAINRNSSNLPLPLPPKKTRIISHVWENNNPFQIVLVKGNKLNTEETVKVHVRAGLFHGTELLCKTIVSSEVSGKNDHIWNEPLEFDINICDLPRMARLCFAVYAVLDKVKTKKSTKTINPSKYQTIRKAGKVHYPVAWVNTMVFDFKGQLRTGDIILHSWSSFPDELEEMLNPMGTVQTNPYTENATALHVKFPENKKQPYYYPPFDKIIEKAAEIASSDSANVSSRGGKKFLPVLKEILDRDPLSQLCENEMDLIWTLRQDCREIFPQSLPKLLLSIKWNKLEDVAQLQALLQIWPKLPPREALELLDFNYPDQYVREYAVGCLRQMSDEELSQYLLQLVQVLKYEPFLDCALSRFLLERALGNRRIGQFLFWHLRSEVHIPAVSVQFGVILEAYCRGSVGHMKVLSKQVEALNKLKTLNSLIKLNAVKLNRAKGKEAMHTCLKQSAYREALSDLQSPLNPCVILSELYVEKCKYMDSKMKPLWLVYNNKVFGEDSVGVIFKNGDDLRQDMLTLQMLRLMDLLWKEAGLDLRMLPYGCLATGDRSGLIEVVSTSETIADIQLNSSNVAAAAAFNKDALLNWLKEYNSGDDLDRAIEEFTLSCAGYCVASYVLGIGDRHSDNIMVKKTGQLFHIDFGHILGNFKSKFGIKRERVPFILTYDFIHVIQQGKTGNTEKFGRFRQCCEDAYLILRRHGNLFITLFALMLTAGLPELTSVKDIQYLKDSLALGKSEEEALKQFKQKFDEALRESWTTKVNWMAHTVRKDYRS

[12] = target: T2, Serine/threonine-protein kinase mTOR; assay: Inhibition of mTOR (unknown origin) assessed as residual activity at 30 nM relative to control; values are per cent of control
mTORC1 [13] = target: T1, mTORC1; assay: Inhibition of mTORC1 (unknown origin) assessed as measuring phosphorylated p7OS6K level at 0.2 uM relative to control; format: protein-complex assay
mTORC2 (Homo sapiens) = mTORC2 (Homo sapiens) (UniProt P42345+Q6R327+Q9BVC4+Q9BPZ7); assay: Inhibition of mTORC2 (unknown origin) assessed as measuring phosphorylated AKT at 0.5 uM relative to control; format: protein-complex assay
mTORC1 [14] = target: T1, mTORC1; assay: Inhibition of mTORC1 (unknown origin) assessed as measuring phosphorylated 4EBP1 level at 1 uM relative to control; format: protein-complex assay

SMILES: COc1ccc(-c2ccc3c(N4CCOC[C@@H]4C)nc(N4CCOC[C@@H]4C)cc3n2)cc1CO
IC50 [3]: < 100 nM

SMILES: C[C@H]1COCCN1c1cc2nc(-c3cccc(CO)c3)ccc2c(N2CCOC[C@@H]2C)n1
IC50 [3]: < 100 nM

SMILES: CO[C@@H]1C[C@H](C[C@@H](C)[C@@H]2CC(=O)[C@H](C)/C=C(\C)[C@@H](O)[C@@H](OC)C(=O)[C@H](C)C[C@H](C)/C=C/C=C/C=C(\C)C(OCCO)C[C@@H]3CC[C@@H](C)[C@@](O)(O3)C(=O)C(=O)N3CCCC[C@H]3C(=O)O2)CC[C@H]1OC(=O)NCCc1ccccc1 (stereo partly drawn)
IC50 (mTORC2): > 10000 nM
IC50 (mTORC1 [1]): < 0.316 nM

SMILES: CC(C)n1nc(-c2cc3cc(O)cc(F)c3[nH]2)c2c(N)ncnc21
IC50 [7]: 50 nM
IC50 (mTORC1 [8]): < 5 nM
IC50 [9]: 100 nM

SMILES: O=S(=O)(Nc1cc(-c2ccc3ncc(N4CCNCC4)nc3c2)cnc1Cl)c1ccc(F)cc1
IC50 [10]: 5.14 nM
IC50 [11]: 4.77 nM

SMILES: CC(C)(C#N)c1ccc(-n2c3c4cc(-c5ccc(NC(=O)CNC6CCCCC6)nc5)ccc4ncc3n3cnnc23)cc1
residual activity [12]: < 5%

SMILES: COc1ccc(-c2ccc3c(N4CCOC[C@@H]4C)cc(N4CCOC[C@@H]4C)nc3n2)cc1
IC50 [3]: < 100 nM

SMILES: C[C@H]1COCCN1c1nc(N2CCO[C@@H]3CCCC[C@@H]32)nc2nc(-c3cccc(C4=NCC(C)(C)N4)c3)ccc12
inhibition (mTORC1 [13]): 77.7%
inhibition (mTORC2 (Homo sapiens)): 56.2%
inhibition (mTORC1 [14]): 83.2%

Continued, in another order:

IC50 (mTORC2): > 10000 nM
IC50 (mTORC1 [1]): < 0.316 nM
SMILES: CO[C@@H]1C[C@H](C[C@@H](C)[C@@H]2CC(=O)[C@H](C)/C=C(\C)[C@@H](O)[C@@H](OC)C(=O)[C@H](C)C[C@H](C)/C=C/C=C/C=C(\C)C(OCCO)C[C@@H]3CC[C@@H](C)[C@@](O)(O3)C(=O)C(=O)N3CCCC[C@H]3C(=O)O2)CC[C@H]1OCCCN1CCOC[C@@H]1C (stereo partly drawn)

IC50 (A549): 3040 nM
solubility [2]: 10000 µg/mL
SMILES: CO[C@@H]1C[C@@H]2CC[C@@H](C)[C@@](O)(O2)C(=O)C(=O)N2CCCC[C@H]2C(=O)O[C@H]([C@H](C)C[C@@H]2CC[C@@H](O)[C@H](OC)C2)CC(=O)[C@H](C)/C=C(\C)[C@@H](OC(=O)C[n+]2csc(C)c2C)[C@@H](OC)C(=O)[C@H](C)C[C@H](C)/C=C/C=C/C=C/1C.[Br-]

IC50 (mTORC1 [4]): 0.1 nM
Ki [5]: 3.9 nM
IC50 (DU-145): 2.7 nM
IC50 (PC-3): 2.5 nM
SMILES: CO[C@@H]1C[C@@H]2CC[C@@H](C)[C@@](O)(O2)C(=O)C(=O)N2CCCC[C@H]2C(=O)OC([C@H](C)C[C@@H]2C[C@@H]3C[C@H]2C[C@H]3O)CC(=O)[C@H](C)/C=C(\C)[C@@H](O)[C@@H](OC)C(=O)[C@H](C)C[C@H](C)/C=C/C=C/C=C/1C (stereo partly drawn)
IC50 (SF-268): 0.19 nM
IC50 [6]: 2.2 nM

IC50 (mTORC2): > 10000 nM
IC50 (mTORC1 [1]): < 0.316 nM
SMILES: CO[C@@H]1C[C@H](C[C@@H](C)[C@@H]2CC(=O)[C@H](C)/C=C(\C)[C@@H](O)[C@@H](OC)C(=O)[C@H](C)C[C@H](C)/C=C/C=C/C=C(\C)C(OCCO)C[C@@H]3CC[C@@H](C)[C@@](O)(O3)C(=O)C(=O)N3CCCC[C@H]3C(=O)O2)CC[C@H]1OCCCN1CCOC[C@H]1C (stereo partly drawn)

IC50 (mTORC2): > 10000 nM
IC50 (mTORC1 [1]): < 0.316 nM
SMILES: CO[C@@H]1C[C@H](C[C@@H](C)[C@@H]2CC(=O)[C@H](C)/C=C(\C)[C@@H](O)[C@@H](OC)C(=O)[C@H](C)C[C@H](C)/C=C/C=C/C=C(\C)C(OCCO)C[C@@H]3CC[C@@H](C)[C@@](O)(O3)C(=O)C(=O)N3CCCC[C@H]3C(=O)O2)CC[C@H]1OCCCN1C[C@@H](C)O[C@@H](C)C1 (stereo partly drawn)

IC50 (A549): 49400 nM
IC50 (DU-145): 4000 nM
IC50 (PC-3): 1300 nM
SMILES: CO[C@H]1C[C@@H]2CC[C@@H](C)[C@@](O)(O2)C(=O)C(=O)N2CCCC[C@H]2C(=O)O[C@H]([C@H](C)C[C@@H]2CC[C@@H](O)[C@H](OC)C2)CC(=O)[C@H](C)/C=C(\C)[C@@H](O)[C@@H](OC)C(=O)[C@H](C)C[C@H](C)/C=C/C=C/C=C/1C [SIROLIMUS]
IC50 (SF-268): 2700 nM
IC50 [6]: 10000 nM
